Non-standard residues stand in square brackets, D forms with d. Residues, ends and D or L forms follow the SMILES beside them. *: point of attachment. Phe(3-F) = N[C@@H](Cc1cccc(F)c1)C(=O)O; Phe(2-F) = N[C@@H](Cc1ccccc1F)C(=O)O; Sta = CC(C)C[C@H](N)[C@@H](O)CC(=O)O; Isovaleryl = CC(C)CC(=O)*
Columns and labels:
Type in all cases: biochemical
Sap6 of Candida albicans = Sap6 of Candida albicans (Candida albicans, UniProt Q5AC08); assay: Inhibition of proteolytic activity of Sap6 (resorufin-marked casein, fluorescence)
Sap6 of Candida albicans, sequence (Q5AC08 77-418): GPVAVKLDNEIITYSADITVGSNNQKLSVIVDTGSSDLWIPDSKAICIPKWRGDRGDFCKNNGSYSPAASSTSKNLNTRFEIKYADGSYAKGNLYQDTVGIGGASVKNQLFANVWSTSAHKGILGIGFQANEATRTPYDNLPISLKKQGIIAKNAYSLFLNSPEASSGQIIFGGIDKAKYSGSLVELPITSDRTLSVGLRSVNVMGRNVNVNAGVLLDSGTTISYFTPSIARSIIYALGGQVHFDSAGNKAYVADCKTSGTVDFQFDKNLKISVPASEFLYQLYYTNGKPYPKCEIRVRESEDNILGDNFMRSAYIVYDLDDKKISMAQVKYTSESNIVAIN
Experimental: (§1) For this purpose, that inhibitor concentration was determined in vitro at which the proteolytic activity of the enzyme or its velocity of metabolizing a substrate, respectively, was reduced for 50%.
(§2) The proteolytic activity of the tested Saps was determined at the pH optimum of those Saps. Resorufin-marked casein was used as substrate. Proteolysis of casein can be detected by an increase in fluorescence due to released resorufin (a fluorescence marker) by proteolysis.
(§3) Sap1, Sap3 and Sap6 of Candida albicans were independently dissolved in 2-(N-morpholino)ethanesulfonic acid (MES) having a concentration of 10 mmol/l and a pH of 6.5 resulting in enzyme solutions having a Sap concentration of 100 mmol/l. After one hour incubation at room temperature, 80 μl of a substrate solution comprising resorufin-marked casein in a sodium citrate buffer having a concentration of 500 mmol/l and a pH of 3.5 (in case of Sap3), 4.5 (in case of Sap1) and 5.0 (in case of Sap6) were added to 20 μl of enzyme solution. The resulting Sap concentration was 5 nmol/l. The resulting casein concentration was chosen such that the Saps could work in excess of substrate. Different Sap inhibitors were added, resulting in a final inhibitor concentration of 1 nmol/1, 2 nmol/1, 5 nmol/1, 10 nmol/l, nmol/l or 50 nmol/l in each case. One enzyme-substrate sample was left without addition of inhibitor. All experiments were performed in triplicate.
(§4) The mixture of enzyme and substrate or of enzyme, substrate and inhibitor was incubated at 37° C. under agitation at 300 rpm (rounds per minute) for 60 min in each case. Afterwards, 20 μl of a trichloroacetic acid solution (30%, w/v) were added. The mixture was placed on ice for 5 minutes and centrifuged afterwards for 3 min at 6000 rpm. The supernatant was removed.
(§5) To carry out fluorescence measurements, 100 μl of the supernatant were mixed with 100 μl Tris-HCl (trishydroxymethylaminomethane-HCl) having a concentration of 1 mol/l and a pH of 10.0. The fluorescence of this mixture was measured directly after adding Tris-HCl using an excitation wavelength of 530 nm and an emission wavelength of 590 nm on a CytoFluor 2350 apparatus (Millipore, Bedford, Mass., USA), wherein sensitivity was set to 2 and bandwidth was set to 7.
(§6) The average of three independent fluorescence measurements was calculated. The fluorescence of enzyme without inhibitor (i.e. inhibitor concentration of 0 nmol/l) was set to 100% enzyme activity. The activity of inhibited enzyme was calculated accordingly from the fluorescence of inhibited enzyme with respect to fluorescence of enzyme without inhibitor. Finally, the enzyme activity was plotted against the inhibitor concentration and the IC50 value was determined.

Sap1 of Candida albicans = Sap1 of Candida albicans (Candida albicans, UniProt P0CY27); assay: Inhibition of proteolytic activity of Sap1 (resorufin-marked casein, fluorescence)
Sap1 of Candida albicans, sequence (P0CY27 51-391): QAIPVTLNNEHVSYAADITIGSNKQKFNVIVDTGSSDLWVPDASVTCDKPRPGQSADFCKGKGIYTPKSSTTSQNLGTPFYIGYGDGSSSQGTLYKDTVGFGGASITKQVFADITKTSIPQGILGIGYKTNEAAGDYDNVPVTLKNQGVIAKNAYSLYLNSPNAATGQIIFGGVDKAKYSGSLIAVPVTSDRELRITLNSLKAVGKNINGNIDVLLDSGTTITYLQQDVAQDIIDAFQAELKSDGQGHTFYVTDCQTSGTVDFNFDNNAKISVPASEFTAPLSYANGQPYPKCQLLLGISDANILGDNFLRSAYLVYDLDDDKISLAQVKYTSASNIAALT
Experimental: as §1, §2, §3, §4, §5, §6

Saps of Candida albicans = assay: Overall Sap inhibition (summary of table 1); conditions: table 1 summary
Experimental: as §1, §2
as §3, with “Different Sap inhibitors were added, resulting in a final inhibitor concentration of 1 nmol/1, 2 nmol/1, 5 nmol/1, 10 nmol/l, nmol/l or 50 nmol/l in each case. One enzyme-substrate sample was left without addition of inhibitor. All experiments were performed in triplicate.” left out
as §5, §6

Sap5 = Sap5 (Candida albicans, UniProt P43094); assay: Inhibition of proteolytic activity of Sap5
Sap5, sequence (P43094 77-418): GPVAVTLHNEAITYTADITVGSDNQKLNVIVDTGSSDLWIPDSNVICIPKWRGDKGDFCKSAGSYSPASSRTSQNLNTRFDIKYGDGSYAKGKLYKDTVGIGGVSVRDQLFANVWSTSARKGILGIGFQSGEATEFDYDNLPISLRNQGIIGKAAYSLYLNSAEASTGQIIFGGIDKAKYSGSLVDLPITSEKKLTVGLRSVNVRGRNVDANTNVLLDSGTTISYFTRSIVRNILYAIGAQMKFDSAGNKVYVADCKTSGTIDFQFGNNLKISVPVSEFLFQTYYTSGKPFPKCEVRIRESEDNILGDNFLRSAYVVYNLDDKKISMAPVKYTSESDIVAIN
Experimental: as §1, §2, §4, §5, §6

Sap3 of Candida albicans = Sap3 of Candida albicans (Candida albicans, UniProt P0CY29); assay: Inhibition of proteolytic activity of Sap3 (resorufin-marked casein, fluorescence)
Sap3 of Candida albicans, sequence (P0CY29 59-398): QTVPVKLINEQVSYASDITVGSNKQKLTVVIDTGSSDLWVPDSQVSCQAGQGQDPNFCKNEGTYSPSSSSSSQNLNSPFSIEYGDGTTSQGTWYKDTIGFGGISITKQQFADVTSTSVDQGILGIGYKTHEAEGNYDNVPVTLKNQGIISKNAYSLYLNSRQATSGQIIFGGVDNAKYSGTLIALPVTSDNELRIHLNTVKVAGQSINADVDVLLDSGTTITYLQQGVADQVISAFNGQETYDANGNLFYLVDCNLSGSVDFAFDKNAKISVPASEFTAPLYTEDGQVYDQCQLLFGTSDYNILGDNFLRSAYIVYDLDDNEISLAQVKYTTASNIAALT
Experimental: as §1, §2, §3, §4, §5, §6

CC(C)CN(C[C@@H](O)[C@H](Cc1ccccc1)NC(=O)O[C@H]1CCOC1)S(=O)(=O)c1ccc(N)cc1 [Amprenavir, reference compound]
IC50 (Sap6 of Candida albicans): > 50000 nM
IC50 (Sap1 of Candida albicans): ~5000 nM
IC50 values, range (Saps of Candida albicans): in the range of micromole per litre
IC50 (Sap5): ~33000 nM
IC50 (Sap3 of Candida albicans): ~20000 nM

Cc1cccc(C)c1OCC(=O)N[C@@H](Cc1ccccc1)[C@@H](O)C[C@H](Cc1ccccc1)NC(=O)[C@H](C(C)C)N1CCCNC1=O [Lopinavir, reference compound]
IC50 (Sap6 of Candida albicans): > 312000 nM
IC50 (Sap1 of Candida albicans): 312000 nM
IC50 values, range (Saps of Candida albicans): in the range of micromole per litre
IC50 (Sap5): > 312000 nM
IC50 (Sap3 of Candida albicans): > 312000 nM

CC(C)CC(=O)N[C@@H](Cc1cccc(F)c1)C(=O)N[C@H](C(=O)N[C@@H](CC(C)C)[C@@H](O)CC(=O)N[C@@H](C)C(=O)N[C@@H](CC(C)C)[C@@H](O)CC(=O)O)C(C)C [P3(m-FPhe)-pepstatin, (N-Iva-mFPhe)-Val-Sta-Ala-Sta] (Isovaleryl-[Phe(3-F)]V[Sta]A[Sta]-OH)
IC50 (Sap6 of Candida albicans): 10 nM
IC50 (Sap1 of Candida albicans): 10 nM
IC50 (Sap5): ~10 nM
IC50 (Sap3 of Candida albicans): ~10 nM

CC(C)CC(=O)N[C@@H](Cc1ccccc1F)C(=O)N[C@H](C(=O)N[C@@H](CC(C)C)[C@@H](O)CC(=O)N[C@@H](C)C(=O)N[C@@H](CC(C)C)[C@@H](O)CC(=O)O)C(C)C [P3(o-FPhe)-pepstatin, (N-Iva-oFPhe)-Val-Sta-Ala-Sta] (Isovaleryl-[Phe(2-F)]V[Sta]A[Sta]-OH)
IC50 (Sap6 of Candida albicans): ~100 nM
IC50 (Sap1 of Candida albicans): ~20 nM
IC50 (Sap5): ~50 nM
IC50 (Sap3 of Candida albicans): ~20 nM

CC(C)CC(=O)N[C@H](C(=O)N[C@H](C(=O)N[C@@H](CC(C)C)[C@@H](O)CC(=O)N[C@@H](C)C(=O)N[C@@H](CC(C)C)[C@@H](O)CC(=O)O)C(C)C)C(C)C [Pepstatin A] (Isovaleryl-VV[Sta]A[Sta]-OH)
IC50 (Sap6 of Candida albicans): ~7 nM
IC50 (Sap1 of Candida albicans): ~7 nM
IC50 (Sap5): 5 nM
IC50 (Sap3 of Candida albicans): ~1 nM

CC(C)c1nc(CN(C)C(=O)N[C@H](C(=O)N[C@@H](Cc2ccccc2)C[C@H](O)[C@H](Cc2ccccc2)NC(=O)OCc2cncs2)C(C)C)cs1 [Ritonavir]
IC50 values, range (Saps of Candida albicans): in the range of micromole per litre

Source: US8809498B2, “Pepstatin A derivatives” (priority 2008, dated 2014)
